Assay results published in patent publication US9920063B2, “Melampomagnolide B derivatives” (Board of Trustees of the University of Arkansas, priority 2013, dated 2018).
Where two headings read alike, the source gives them in different places.

Procedure for AML 052308 cells: For each compound, in vitro cell culture studies were performed in which a range of concentrations (0.25-20 μM) was tested for cytotoxicity against leukemia cell lines, primary leukemia specimens and normal bone marrow controls.

C=C1C(=O)O[C@H]2[C@H]1CC/C(COC(=O)c1cc3ccccc3[nH]1)=C\CC[C@@]1(C)O[C@@H]21 [BS-1-28]
CC50 (NCI-H460): 7750 nM
Percent Growth (NCI-H460; NCI-H460, Log10 Concentration −4.0): −75%
Percent Growth (NCI-H460; NCI-H460, Log10 Concentration −5.0): −67%
Percent Growth (NCI-H460; NCI-H460, Log10 Concentration −6.0): 86%
Percent Growth (NCI-H460; NCI-H460, Log10 Concentration −7.0): 101%
Percent Growth (NCI-H460; NCI-H460, Log10 Concentration −8.0): 166%
GI50 (NCI-H460; NCI-H460, NCI five dose): 1730 nM
TGI (NCI-H460; NCI-H460, NCI five dose): 3.66E−6
CC50 (NCI/ADR-RES): > 100000 nM
Percent Growth (NCI/ADR-RES; NCl/ADR-RES, Log10 Concentration −4.0): −43%
Percent Growth (NCI/ADR-RES; NCl/ADR-RES, Log10 Concentration −5.0): −2%
Percent Growth (NCI/ADR-RES; NCl/ADR-RES, Log10 Concentration −6.0): 77%
Percent Growth (NCI/ADR-RES; NCl/ADR-RES, Log10 Concentration −7.0): 100%
Percent Growth (NCI/ADR-RES; NCl/ADR-RES, Log10 Concentration −8.0): 99%
GI50 (NCI/ADR-RES; NCl/ADR-RES, NCI five dose): 2200 nM
TGI (NCI/ADR-RES; NCl/ADR-RES, NCI five dose): 9.42E−6
CC50 (SK-OV-3): 11700 nM
Percent Growth (SK-OV-3; SK-OV-3, Log10 Concentration −4.0): −86%
Percent Growth (SK-OV-3; SK-OV-3, Log10 Concentration −5.0): −47%
Percent Growth (SK-OV-3; SK-OV-3, Log10 Concentration −6.0): 77%
Percent Growth (SK-OV-3; SK-OV-3, Log10 Concentration −7.0): 90%
Percent Growth (SK-OV-3; SK-OV-3, Log10 Concentration −8.0): 82%
GI50 (SK-OV-3; SK-OV-3, NCI five dose): 1650 nM
TGI (SK-OV-3; SK-OV-3, NCI five dose): 4.47E−6
CC50 (HCT-116): 841 nM
Percent Growth (HCT-116; HCT-116, Log10 Concentration −4.0): −91%
Percent Growth (HCT-116; HCT-116, Log10 Concentration −5.0): −94%
Percent Growth (HCT-116; HCT-116, Log10 Concentration −6.0): −62%
Percent Growth (HCT-116; HCT-116, Log10 Concentration −7.0): 96%
Percent Growth (HCT-116; HCT-116, Log10 Concentration −8.0): 97%
GI50 (HCT-116; HCT-116, NCI five dose): 196 nM
TGI (HCT-116; HCT-116, NCI five dose): 4.06E−7
CC50 (SN12C): 90500 nM
Percent Growth (SN12C; SN12C, Log10 Concentration −4.0): −59%
Percent Growth (SN12C; SN12C, Log10 Concentration −5.0): −35%
Percent Growth (SN12C; SN12C, Log10 Concentration −6.0): 77%
Percent Growth (SN12C; SN12C, Log10 Concentration −7.0): 71%
Percent Growth (SN12C; SN12C, Log10 Concentration −8.0): 60%
GI50 (SN12C; SN12C, NCI five dose): 1140 nM
TGI (SN12C; SN12C, NCI five dose): 4.83E−6
CC50 (UACC-257): 6980 nM
Percent Growth (UACC-257; UACC-257, Log10 Concentration −4.0): −78%
Percent Growth (UACC-257; UACC-257, Log10 Concentration −5.0): −75%
Percent Growth (UACC-257; UACC-257, Log10 Concentration −6.0): 53%
Percent Growth (UACC-257; UACC-257, Log10 Concentration −7.0): 93%
Percent Growth (UACC-257; UACC-257, Log10 Concentration −8.0): 98%
GI50 (UACC-257; UACC-257, NCI five dose): 1610 nM
TGI (UACC-257; UACC-257, NCI five dose): 3.36E−6
CC50 (A549/ATCC): 59300 nM
Percent Growth (A549/ATCC; A549/ATCC, Log10 Concentration −4.0): −53%
Percent Growth (A549/ATCC; A549/ATCC, Log10 Concentration −5.0): −41%
Percent Growth (A549/ATCC; A549/ATCC, Log10 Concentration −6.0): 92%
Percent Growth (A549/ATCC; A549/ATCC, Log10 Concentration −7.0): 96%
Percent Growth (A549/ATCC; A549/ATCC, Log10 Concentration −8.0): 91%
GI50 (A549/ATCC; A549/ATCC, NCI five dose): 2060 nM
TGI (A549/ATCC; A549/ATCC, NCI five dose): 4.90E−6
CC50 (MDA-MB-468): 5170 nM
Percent Growth (MDA-MB-468; MDA-MB-468, Log10 Concentration −4.0): −52%
Percent Growth (MDA-MB-468; MDA-MB-468, Log10 Concentration −5.0): −71%
Percent Growth (MDA-MB-468; MDA-MB-468, Log10 Concentration −6.0): 3%
Percent Growth (MDA-MB-468; MDA-MB-468, Log10 Concentration −7.0): 95%
Percent Growth (MDA-MB-468; MDA-MB-468, Log10 Concentration −8.0): 76%
GI50 (MDA-MB-468; MDA-MB-468, NCI five dose): 307 nM
TGI (MDA-MB-468; MDA-MB-468, NCI five dose): 1.10E−6
CC50 (NCI-H23): 7720 nM
Percent Growth (NCI-H23; NCI-H23, Log10 Concentration −4.0): −84%
Percent Growth (NCI-H23; NCI-H23, Log10 Concentration −5.0): −67%
Percent Growth (NCI-H23; NCI-H23, Log10 Concentration −6.0): 85%
Percent Growth (NCI-H23; NCI-H23, Log10 Concentration −7.0): 96%
Percent Growth (NCI-H23; NCI-H23, Log10 Concentration −8.0): 96%
GI50 (NCI-H23; NCI-H23, NCI five dose): 1690 nM
TGI (NCI-H23; NCI-H23, NCI five dose): 3.62E−6
CC50 (A498): 5630 nM
Percent Growth (A498; A498, Log10 Concentration −4.0): −95%
Percent Growth (A498; A498, Log10 Concentration −5.0): −99%
Percent Growth (A498; A498, Log10 Concentration −6.0): 97%
Percent Growth (A498; A498, Log10 Concentration −7.0): 102%
Percent Growth (A498; A498, Log10 Concentration −8.0): 110%
GI50 (A498; A498, NCI five dose): 1740 nM
TGI (A498; A498, NCI five dose): 3.43E−6
CC50 (SF-539): 6530 nM
Percent Growth (SF-539; SF-539, Log10 Concentration −4.0): −91%
Percent Growth (SF-539; SF-539, Log10 Concentration −5.0): −91%
Percent Growth (SF-539; SF-539, Log10 Concentration −6.0): 70%
Percent Growth (SF-539; SF-539, Log10 Concentration −7.0): 93%
Percent Growth (SF-539; SF-539, Log10 Concentration −8.0): 90%
GI50 (SF-539; SF-539, NCI five dose): 1320 nM
TGI (SF-539; SF-539, NCI five dose): 2.71E−4
CC50 (MCF7): 6690 nM
Percent Growth (MCF7; MCF7, Log10 Concentration −4.0): −56%
Percent Growth (MCF7; MCF7, Log10 Concentration −5.0): −63%
Percent Growth (MCF7; MCF7, Log10 Concentration −6.0): 11%
Percent Growth (MCF7; MCF7, Log10 Concentration −7.0): 88%
Percent Growth (MCF7; MCF7, Log10 Concentration −8.0): 63%
GI50 (MCF7; MCF7, NCI five dose): 302 nM
TGI (MCF7; MCF7, NCI five dose): 1.39E−6
CC50 (786-0): 9010 nM
Percent Growth (786-0; 786-0, Log10 Concentration −4.0): −94%
Percent Growth (786-0; 786-0, Log10 Concentration −5.0): −90%
Percent Growth (786-0; 786-0, Log10 Concentration −6.0): 11%
Percent Growth (786-0; 786-0, Log10 Concentration −7.0): 102%
Percent Growth (786-0; 786-0, Log10 Concentration −8.0): 96%
GI50 (786-0; 786-0, NCI five dose): 371 nM
TGI (786-0; 786-0, NCI five dose): 1.28E−6
CC50 (K-562): > 100000 nM
Percent Growth (K-562; K-562, Log10 Concentration −4.0): −24%
Percent Growth (K-562; K-562, Log10 Concentration −5.0): −1%
Percent Growth (K-562; K-562, Log10 Concentration −6.0): 5%
Percent Growth (K-562; K-562, Log10 Concentration −7.0): 98%
Percent Growth (K-562; K-562, Log10 Concentration −8.0): 100%
GI50 (K-562; K-562, NCI five dose): 327 nM
TGI (K-562; K-562, NCI five dose): 5.79E−6
CC50 (MOLT-4): > 100000 nM
Percent Growth (MOLT-4; MOLT-4, Log10 Concentration −4.0): −32%
Percent Growth (MOLT-4; MOLT-4, Log10 Concentration −5.0): −3%
Percent Growth (MOLT-4; MOLT-4, Log10 Concentration −6.0): 62%
Percent Growth (MOLT-4; MOLT-4, Log10 Concentration −7.0): 103%
Percent Growth (MOLT-4; MOLT-4, Log10 Concentration −8.0): 105%
GI50 (MOLT-4; MOLT-4, NCI five dose): 1510 nM
TGI (MOLT-4; MOLT-4, NCI five dose): 8.89E−6
CC50 (LOX IMVI): 732 nM
Percent Growth (LOX IMVI; LOX IMVI, Log10 Concentration −4.0): −81%
Percent Growth (LOX IMVI; LOX IMVI, Log10 Concentration −5.0): −88%
Percent Growth (LOX IMVI; LOX IMVI, Log10 Concentration −6.0): −72%
Percent Growth (LOX IMVI; LOX IMVI, Log10 Concentration −7.0): 93%
Percent Growth (LOX IMVI; LOX IMVI, Log10 Concentration −8.0): 93%
GI50 (LOX IMVI; LOX IMVI, NCI five dose): 182 nM
TGI (LOX IMVI; LOX IMVI, NCI five dose): 3.65E−7
CC50 (OVCAR-8): 64600 nM
Percent Growth (OVCAR-8; OVCAR-8, Log10 Concentration −4.0): −63%
Percent Growth (OVCAR-8; OVCAR-8, Log10 Concentration −5.0): 5%
Percent Growth (OVCAR-8; OVCAR-8, Log10 Concentration −6.0): 69%
Percent Growth (OVCAR-8; OVCAR-8, Log10 Concentration −7.0): 63%
Percent Growth (OVCAR-8; OVCAR-8, Log10 Concentration −8.0): 58%
GI50 (OVCAR-8; OVCAR-8, NCI five dose): 1990 nM
TGI (OVCAR-8; OVCAR-8, NCI five dose): 1.19E−4
CC50 (BT-549): 2640 nM
Percent Growth (BT-549; BT-549, Log10 Concentration −4.0): −99%
Percent Growth (BT-549; BT-549, Log10 Concentration −5.0): −88%
Percent Growth (BT-549; BT-549, Log10 Concentration −6.0): −22%
Percent Growth (BT-549; BT-549, Log10 Concentration −7.0): 14%
Percent Growth (BT-549; BT-549, Log10 Concentration −8.0): −30%
GI50 (BT-549; BT-549, NCI five dose): < 10 nM
GI50 (BT-549; BT-549 breast cancer cell line): < 10 nM
Fold more cytotoxic than MMB (AML 052308 cells): around 7 fold
